Assay results as given in PubChem BioAssay AID1918955 (Molecular Pharmacology Branch, DTP, NCI, 2023).

Tested on: NCI/ADR-RES complex spheroid viability
Test: Anticancer human tumor NCI/ADR-RES cell line growth inhibition;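 further: spheroids exposed to compounds for 7 days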;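 on viability, T/C: 100% = DMSO vehicle treated spheroids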
Conditions: for IC50: curve of first compound; for viability, T/C: stronger effect = lower value
Procedure, shortened: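 Drug combinations with the LSD1 inhibitor iadademstat tested on tumor cells co-cultured as spheroids with endothelial cells and mesenchymal stem cells. Concentrations descended in half-log increments from clinical Cmax or 10 microM.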

[1] = second compound 0.1 µM, first compound 0.0316 µM
[2] = second compound 0.1 µM, first compound 0.1 µM
[3] = second compound 0.1 µM, first compound 0.316 µM
[4] = second compound 0.1 µM, first compound 1 µM
[5] = second compound 0.316 µM, first compound 0.0316 µM
[6] = second compound 0.316 µM, first compound 0.1 µM
[7] = second compound 0.316 µM, first compound 0.316 µM
[8] = second compound 0.316 µM, first compound 1 µM
[9] = second compound 1 µM, first compound 0.0316 µM
[10] = second compound 1 µM, first compound 0.1 µM
[11] = second compound 1 µM, first compound 0.316 µM
[12] = second compound 1 µM, first compound 1 µM
[13] = second compound 3.16 µM, first compound 0.0316 µM
[14] = second compound 3.16 µM, first compound 0.1 µM
[15] = second compound 3.16 µM, first compound 0.316 µM
[16] = second compound 3.16 µM, first compound 1 µM
[17] = second compound 10 µM, first compound 0.0316 µM
[18] = second compound 10 µM, first compound 0.1 µM
[19] = second compound 10 µM, first compound 0.316 µM
[20] = second compound 10 µM, first compound 1 µM

Row | Structure (SMILES) | IC50 (second compound 0.1 µM) | IC50 (second compound 0.316 µM) | IC50 (second compound 1 µM) | IC50 (second compound 3.16 µM) | IC50 (second compound 10 µM) | viability, T/C [1] | viability, T/C [2] | viability, T/C [3] | viability, T/C [4] | viability, T/C [5] | viability, T/C [6] | viability, T/C [7] | viability, T/C [8] | viability, T/C [9] | viability, T/C [10] | viability, T/C [11] | viability, T/C [12] | viability, T/C [13] | viability, T/C [14] | viability, T/C [15] | also measured
1 | CC1COCCN1c1cc(-c2ccnn2C)c2ccnc(-c3ccn[nH]3)c2n1 (stereo not given) + NC1CCC(NC2CC2c2ccccc2)CC1 | 15.5 nM | 16.3 nM | 16.5 nM | 13.8 nM | 7.44 nM | 17.4% | 4.62% | 5.9% | 8.55% | 16.8% | 2.98% | 2.91% | 2.82% | 18.8% | 3.17% | 7.14% | 10.6% | 10.3% | 2.4% | 6% | viability, T/C (second compound 0.1 µM, first compound 0.00316 µM): 99.8%; viability, T/C (second compound 0.1 µM, first compound 0.01 µM): 70.3%; viability, T/C (second compound 0.316 µM, first compound 0.00316 µM): 101%; viability, T/C (second compound 0.316 µM, first compound 0.01 µM): 74.4%; viability, T/C (second compound 1 µM, first compound 0.00316 µM): 102%; viability, T/C (second compound 1 µM, first compound 0.01 µM): 74.6%; viability, T/C (second compound 3.16 µM, first compound 0.00316 µM): 92.1%; viability, T/C (second compound 3.16 µM, first compound 0.01 µM): 65.6%; viability, T/C [16]: 2.76%; viability, T/C (second compound 10 µM, first compound 0.00316 µM): 83.9%; viability, T/C (second compound 10 µM, first compound 0.01 µM): 38.2%; viability, T/C [17]: 11.9%; viability, T/C [18]: 2.97%; viability, T/C [19]: 1.89%; viability, T/C [20]: 2.07%
2 | COc1ccc([C@@H](O)c2cc(-c3ncnc4cc(N5CCOCC5)ccc34)c(F)cc2Cl)nn1 + NC1CCC(NC2CC2c2ccccc2)CC1 | 3590 nM | 3970 nM | 3120 nM | 2970 nM | 2060 nM | 102% | 90.2% | 91.8% | 89.8% | 108% | 105% | 89.7% | 82.7% | 102% | 97.8% | 90.6% | 74.1% | 101% | 105% | 93.6% | viability, T/C (second compound 0.1 µM, first compound 3.16 µM): 52.8%; viability, T/C (second compound 0.1 µM, first compound 10 µM): 26.9%; viability, T/C (second compound 0.316 µM, first compound 3.16 µM): 53.5%; viability, T/C (second compound 0.316 µM, first compound 10 µM): 28.2%; viability, T/C (second compound 1 µM, first compound 3.16 µM): 49.5%; viability, T/C (second compound 1 µM, first compound 10 µM): 27.9%; viability, T/C [16]: 73.3%; viability, T/C (second compound 3.16 µM, first compound 3.16 µM): 50%; viability, T/C (second compound 3.16 µM, first compound 10 µM): 28.5%; viability, T/C [17]: 89.7%; viability, T/C [18]: 86.3%; viability, T/C [19]: 85.6%; viability, T/C [20]: 64.8%; viability, T/C (second compound 10 µM, first compound 3.16 µM): 41.2%; viability, T/C (second compound 10 µM, first compound 10 µM): 24.2%
